From ChEMBL document CHEMBL1909046, “DrugMatrix in vitro pharmacology data” come the findings set out here.

One data set addresses Melanocortin receptor 5 (Homo sapiens, UniProt P33032). The format is cell membranes, HEK293, Membrane.
The target of data set [1] is T1, C-X-C chemokine receptor type 1 (Homo sapiens, UniProt P25024). Further: in other assays of this panel Not Active means under 50% inhibition at 10 µM.
T1 sequence (P25024 whole entry): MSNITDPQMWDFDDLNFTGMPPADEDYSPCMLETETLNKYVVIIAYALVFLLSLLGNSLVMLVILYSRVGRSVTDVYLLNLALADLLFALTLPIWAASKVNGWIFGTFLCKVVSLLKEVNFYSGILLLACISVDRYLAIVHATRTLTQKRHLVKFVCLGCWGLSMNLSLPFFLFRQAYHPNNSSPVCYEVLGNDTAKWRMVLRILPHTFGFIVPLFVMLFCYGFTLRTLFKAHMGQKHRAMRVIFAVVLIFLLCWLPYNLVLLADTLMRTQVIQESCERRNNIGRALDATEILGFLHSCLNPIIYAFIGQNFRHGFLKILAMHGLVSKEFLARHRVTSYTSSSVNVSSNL

Data set [2] in a line: DRUGMATRIX: Phorbol Ester radioligand binding (ligand: [3H] PDBu). The following applies: Not Active = under 50% inhibition at 10 µM. The format is cell membranes, Mus musculus, ICR, Brain, Membrane.
Another data set has as its target T2, Thromboxane-A synthase (Homo sapiens, UniProt P24557).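 Further: enzyme inhibition assay with PGH2 supplied as substrate; in other assays of this panel Not Active means under 50% inhibition at 10 µM.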
T2 sequence (P24557 whole entry): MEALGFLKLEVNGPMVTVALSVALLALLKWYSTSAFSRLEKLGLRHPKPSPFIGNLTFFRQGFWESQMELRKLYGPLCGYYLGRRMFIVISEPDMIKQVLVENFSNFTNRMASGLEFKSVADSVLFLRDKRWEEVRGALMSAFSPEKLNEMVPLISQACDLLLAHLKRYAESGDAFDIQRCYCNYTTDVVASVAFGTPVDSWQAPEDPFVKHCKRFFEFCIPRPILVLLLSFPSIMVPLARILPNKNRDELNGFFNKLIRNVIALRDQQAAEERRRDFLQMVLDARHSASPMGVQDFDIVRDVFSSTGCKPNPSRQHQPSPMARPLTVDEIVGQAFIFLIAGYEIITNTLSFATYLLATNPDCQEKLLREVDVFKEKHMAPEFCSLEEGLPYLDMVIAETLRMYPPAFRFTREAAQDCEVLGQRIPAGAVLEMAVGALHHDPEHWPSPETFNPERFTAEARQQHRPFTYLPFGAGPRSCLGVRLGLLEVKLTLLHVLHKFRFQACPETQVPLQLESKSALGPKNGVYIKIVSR
As to the kind of experiment: biochemical. The format is tissue-based, Platelet. The following applies: platelet.

Data set [3] is described as follows: DRUGMATRIX: Calcium Channel Type L, Dihydropyridine radioligand binding (ligand: [3H] Nitrendipine). The format is cell membranes, Rattus norvegicus, Wistar, Cerebral cortex, Membrane. The note with it: Not Active = under 50% inhibition at 10 µM.
The target of the next data set is T3, Caspase-1 (Homo sapiens, UniProt P29466).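 Further: Caspase-1 enzyme inhibition assay with a peptide substrate; in other assays of this panel Not Active means under 50% inhibition at 10 µM.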
T3 sequence (P29466 whole entry): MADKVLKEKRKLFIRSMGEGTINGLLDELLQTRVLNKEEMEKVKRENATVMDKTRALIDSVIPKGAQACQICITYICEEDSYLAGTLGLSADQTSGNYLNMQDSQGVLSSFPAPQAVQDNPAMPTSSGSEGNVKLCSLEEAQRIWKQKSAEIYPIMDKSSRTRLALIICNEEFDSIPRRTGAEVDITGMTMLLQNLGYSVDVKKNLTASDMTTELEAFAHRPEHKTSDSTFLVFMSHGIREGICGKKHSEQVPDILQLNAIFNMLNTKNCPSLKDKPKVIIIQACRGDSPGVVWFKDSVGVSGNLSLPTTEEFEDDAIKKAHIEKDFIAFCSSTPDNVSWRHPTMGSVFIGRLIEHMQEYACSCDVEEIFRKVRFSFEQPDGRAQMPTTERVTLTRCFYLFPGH
Also on record: species or system Escherichia coli.

Data set [4] deals with Receptor tyrosine-protein kinase erbB-2 (Homo sapiens, UniProt P04626). The experiment in a line: biochemical. It counts as cell-based, Insect cells.
Another data set addresses Cytochrome P450 2E1 (Homo sapiens, UniProt P05181). The following applies: bti-tn-5b1-4.

Chain of Cytochrome P450 2E1 (P05181 whole entry): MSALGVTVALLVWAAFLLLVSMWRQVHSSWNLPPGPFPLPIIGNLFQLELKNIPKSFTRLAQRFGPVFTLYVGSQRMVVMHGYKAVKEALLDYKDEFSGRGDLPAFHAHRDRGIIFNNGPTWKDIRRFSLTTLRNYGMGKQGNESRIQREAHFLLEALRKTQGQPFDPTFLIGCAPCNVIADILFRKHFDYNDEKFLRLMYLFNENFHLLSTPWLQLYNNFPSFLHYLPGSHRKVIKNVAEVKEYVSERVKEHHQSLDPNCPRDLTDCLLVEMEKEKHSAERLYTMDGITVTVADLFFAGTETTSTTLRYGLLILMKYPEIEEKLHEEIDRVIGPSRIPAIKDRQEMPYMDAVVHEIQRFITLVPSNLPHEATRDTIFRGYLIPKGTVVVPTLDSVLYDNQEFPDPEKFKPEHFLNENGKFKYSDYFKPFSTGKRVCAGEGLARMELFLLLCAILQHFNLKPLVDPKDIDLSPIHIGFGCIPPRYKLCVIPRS
Chain of Receptor tyrosine-protein kinase erbB-2 (P04626 whole entry): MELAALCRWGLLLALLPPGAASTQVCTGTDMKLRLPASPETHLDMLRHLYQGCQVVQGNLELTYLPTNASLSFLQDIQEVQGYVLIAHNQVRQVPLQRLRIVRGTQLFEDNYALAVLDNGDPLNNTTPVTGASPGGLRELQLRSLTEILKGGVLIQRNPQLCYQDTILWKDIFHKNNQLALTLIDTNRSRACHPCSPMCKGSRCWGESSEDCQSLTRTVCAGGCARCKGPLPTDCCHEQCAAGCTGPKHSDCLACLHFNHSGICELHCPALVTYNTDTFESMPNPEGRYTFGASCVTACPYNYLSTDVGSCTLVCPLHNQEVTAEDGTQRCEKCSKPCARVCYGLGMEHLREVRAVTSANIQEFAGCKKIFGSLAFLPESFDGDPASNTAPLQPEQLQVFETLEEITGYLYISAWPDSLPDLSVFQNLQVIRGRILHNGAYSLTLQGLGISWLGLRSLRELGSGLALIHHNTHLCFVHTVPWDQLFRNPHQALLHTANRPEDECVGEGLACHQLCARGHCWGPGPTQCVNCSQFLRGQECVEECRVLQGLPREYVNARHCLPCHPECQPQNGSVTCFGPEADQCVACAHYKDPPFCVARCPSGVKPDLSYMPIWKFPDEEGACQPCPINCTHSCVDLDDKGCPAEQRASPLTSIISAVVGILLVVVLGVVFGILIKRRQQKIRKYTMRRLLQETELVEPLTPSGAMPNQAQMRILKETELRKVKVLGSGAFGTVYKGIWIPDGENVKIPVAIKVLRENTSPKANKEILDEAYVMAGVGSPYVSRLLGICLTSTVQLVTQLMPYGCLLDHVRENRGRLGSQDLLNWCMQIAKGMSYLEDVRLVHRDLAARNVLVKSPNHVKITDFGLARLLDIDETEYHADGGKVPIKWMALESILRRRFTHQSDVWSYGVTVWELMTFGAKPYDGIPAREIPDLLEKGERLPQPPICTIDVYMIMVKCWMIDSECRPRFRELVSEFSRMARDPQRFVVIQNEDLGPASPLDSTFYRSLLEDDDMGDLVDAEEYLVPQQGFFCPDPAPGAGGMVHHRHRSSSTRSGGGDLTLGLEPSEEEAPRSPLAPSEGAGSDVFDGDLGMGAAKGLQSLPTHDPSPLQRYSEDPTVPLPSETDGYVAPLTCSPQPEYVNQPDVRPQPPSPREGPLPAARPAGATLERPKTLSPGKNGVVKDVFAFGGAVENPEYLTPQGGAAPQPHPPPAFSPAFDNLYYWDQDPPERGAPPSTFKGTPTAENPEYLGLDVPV
Chain of Melanocortin receptor 5 (P33032 whole entry): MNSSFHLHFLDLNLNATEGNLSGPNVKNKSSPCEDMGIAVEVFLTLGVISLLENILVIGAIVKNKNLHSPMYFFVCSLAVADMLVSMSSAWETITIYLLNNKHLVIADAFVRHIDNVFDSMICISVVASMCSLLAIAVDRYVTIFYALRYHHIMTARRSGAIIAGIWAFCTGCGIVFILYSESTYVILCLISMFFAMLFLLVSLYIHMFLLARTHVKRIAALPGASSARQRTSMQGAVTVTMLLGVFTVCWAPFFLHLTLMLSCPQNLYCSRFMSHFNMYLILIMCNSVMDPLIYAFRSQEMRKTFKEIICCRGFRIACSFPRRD

The term IC50 denotes the concentration needed to halve the response being measured. By Ki is commonly meant a dissociation constant, usually derived from enzyme kinetics or from competition with a known ligand. With `COc1cc(N)nc2[nH]c(-c3ccc(F)cc3)c(-c3ccncc3)c12`, the IC50 entry (against Melanocortin receptor 5 (hek293); in data set [1]; in data set [2]; at Thromboxane-A synthase; in data set [3]; at Caspase-1) was “Not Active” each time. The IC50 result (in data set [4] (insect cells); on Cytochrome P450 2E1) was “Not Active” each time. The inhibitory constant (Ki) entry (in data set [2]; in data set [3]; at Cytochrome P450 2E1) was “Not Active” in each case.
With `CNS(=O)(=O)Cc1ccc2[nH]cc(CCN(C)C)c2c1`, the half-maximal inhibitory concentration (IC50) result (against Melanocortin receptor 5 (hek293); in data set [1]; in data set [2]; against Thromboxane-A synthase; in data set [3]; at Caspase-1) was “Not Active” in each case. Besides, the IC50 result (in data set [4] (insect cells); against Cytochrome P450 2E1) was “Not Active” each time. The Ki entry (in data set [2]; in data set [3]; on Cytochrome P450 2E1) was “Not Active” throughout.
Consider `CCCc1nn(C)c2c(=O)[nH]c(-c3cc(S(=O)(=O)N4CCN(C)CC4)ccc3OCC)nc12`, for which the 50% inhibitory concentration (IC50) entry (against Melanocortin receptor 5 (hek293); in data set [1]; in data set [2]; at Thromboxane-A synthase; in data set [3]; on Caspase-1) was “Not Active” throughout. The IC50 result (in data set [4] (insect cells); on Cytochrome P450 2E1) was “Not Active” throughout. In addition, the Ki entry (in data set [2]; in data set [3]; on Cytochrome P450 2E1) was “Not Active” each time.
For `COc1ccc(/C=C/C(=O)Nc2ccccc2C(=O)O)cc1OC`, the IC50 result (against Melanocortin receptor 5 (hek293); in data set [1]; in data set [2]; against Thromboxane-A synthase; in data set [3]; at Caspase-1) was “Not Active” throughout. Moreover, the IC50 result (in data set [4] (insect cells); against Cytochrome P450 2E1) was “Not Active” each time. Besides, the inhibition constant Ki entry (in data set [2]; in data set [3]; on Cytochrome P450 2E1) was “Not Active” in each case.
As to `CCOC(N)=O`, the IC50 result (against Melanocortin receptor 5 (hek293); in data set [1]; in data set [2]; on Thromboxane-A synthase; in data set [3]; against Caspase-1) was “Not Active” throughout. For the same compound, the IC50 entry (in data set [4] (insect cells); on Cytochrome P450 2E1) was “Not Active” throughout. The Ki entry (in data set [2]; in data set [3]; on Cytochrome P450 2E1) was “Not Active” each time.
Consider `CC(=O)Nc1nnc(S(N)(=O)=O)s1` [ACETAZOLAMIDE], for which the IC50 entry (against Melanocortin receptor 5 (hek293); in data set [1]; on Thromboxane-A synthase; on Caspase-1; in data set [4] (insect cells); against Cytochrome P450 2E1) was “Not Active” in each case. At Cytochrome P450 2E1, the Ki result is “Not Active”.
As to `O=c1[nH]c2ccccc2n1CCCN1CCC(n2c(=O)[nH]c3cc(Cl)ccc32)CC1` [DOMPERIDONE], the IC50 entry (at Melanocortin receptor 5 (hek293); in data set [1]; against Thromboxane-A synthase; on Caspase-1; in data set [4] (insect cells)) was “Not Active” throughout.
For `CC1=C(CC(=O)O)c2cc(F)ccc2/C1=C\c1ccc(S(C)(=O)=O)cc1` [EXISULIND], the IC50 result (at Melanocortin receptor 5 (hek293); in data set [1]; in data set [2]; against Thromboxane-A synthase; in data set [3]; at Caspase-1) was “Not Active” each time. Besides, the IC50 entry (in data set [4] (insect cells); against Cytochrome P450 2E1) was “Not Active” in each case. Further, the Ki result (in data set [2]; in data set [3]; at Cytochrome P450 2E1) was “Not Active” in each case.
Consider `CC(C)OC(=O)C(C)(C)Oc1ccc(C(=O)c2ccc(Cl)cc2)cc1` [FENOFIBRATE], for which the IC50 entry (against Melanocortin receptor 5 (hek293); in data set [1]; against Thromboxane-A synthase; against Caspase-1; in data set [4] (insect cells); on Cytochrome P450 2E1) was “Not Active” throughout. The Ki result at Cytochrome P450 2E1 is “Not Active”.
Regarding `OCCN1CCN(CCCN2c3ccccc3Sc3ccc(C(F)(F)F)cc32)CC1` [FLUPHENAZINE], the IC50 is 9.52 µM on Melanocortin receptor 5 (read-out: IC50); “Not Active” in data set [1]; “Not Active” at Thromboxane-A synthase; “Not Active” against Caspase-1; 19.6 µM in data set [4] (read-out: IC50); “Not Active” against Cytochrome P450 2E1. Moreover, the Ki at Melanocortin receptor 5 (read-out: Ki) is 8.93 µM; at Cytochrome P450 2E1 it was “Not Active”.
With `CN1C2CCCC1CC(NC(=O)c1nn(C)c3ccccc13)C2` (stereo unspecified) [GRANISETRON], the half-maximal inhibitory concentration (IC50) result (against Melanocortin receptor 5 (hek293); in data set [1]; on Thromboxane-A synthase; against Caspase-1; in data set [4] (insect cells); at Cytochrome P450 2E1) was “Not Active” each time. The Ki result on Cytochrome P450 2E1 was “Not Active”.
Regarding `Nc1nc2c(c(=O)[nH]1)N(C=O)C(CNc1ccc(C(=O)N[C@@H](CCC(=O)O)C(=O)O)cc1)CN2` (stereo partly specified) [LEUCOVORIN], the IC50 result (against Melanocortin receptor 5 (hek293); in data set [1]; in data set [2]; against Thromboxane-A synthase; in data set [3]; on Caspase-1) was “Not Active” in each case. The IC50 result (in data set [4] (insect cells); against Cytochrome P450 2E1) was “Not Active” throughout. The Ki result (in data set [2]; in data set [3]; on Cytochrome P450 2E1) was “Not Active” each time.
Take `C[C@@H](O)[C@H]1C(=O)N2C(C(=O)O)=C(S[C@@H]3CN[C@H](C(=O)N(C)C)C3)[C@H](C)[C@H]12` [MEROPENEM]: the IC50 entry (against Melanocortin receptor 5 (hek293); in data set [1]; in data set [2]; at Thromboxane-A synthase; in data set [3]; against Caspase-1) was “Not Active” each time. Besides, the IC50 entry (in data set [4] (insect cells); against Cytochrome P450 2E1) was “Not Active” throughout. Moreover, the inhibitory constant (Ki) entry (in data set [2]; in data set [3]; on Cytochrome P450 2E1) was “Not Active” throughout.
Take `CC[C@@H](CO)NC(=O)[C@@H]1C=C2c3cccc4c3c(cn4C)C[C@H]2N(C)C1` [METHYSERGIDE]: the IC50 entry (against Melanocortin receptor 5 (hek293); in data set [1]; against Thromboxane-A synthase; against Caspase-1; in data set [4] (insect cells); against Cytochrome P450 2E1) was “Not Active” throughout. The inhibition constant Ki entry at Cytochrome P450 2E1 is “Not Active”.
As to `CCN(CC)CC#CCOC(=O)C(O)(c1ccccc1)C1CCCCC1` (stereo unspecified) [OXYBUTYNIN], the IC50 result (at Melanocortin receptor 5 (hek293); in data set [1]; on Thromboxane-A synthase; on Caspase-1; in data set [4] (insect cells); against Cytochrome P450 2E1) was “Not Active” each time. For the same compound, at Cytochrome P450 2E1, the Ki entry was “Not Active”.
On to `CCS(=O)(=O)CCn1c([N+](=O)[O-])cnc1C` [TINIDAZOLE], for which the IC50 result (against Melanocortin receptor 5 (hek293); in data set [1]; in data set [2]; on Thromboxane-A synthase; in data set [3]; at Caspase-1) was “Not Active” throughout. The IC50 entry in data set [4] (insect cells) is “Not Active”. In addition, the inhibition constant Ki result in data set [2] and in data set [3] was “Not Active” throughout.
With `O=c1n(CCCN2CCN(c3cccc(Cl)c3)CC2)nc2ccccn12` [TRAZODONE], the half-maximal inhibitory concentration (IC50) result (against Melanocortin receptor 5 (hek293); in data set [1]; on Thromboxane-A synthase; at Caspase-1; in data set [4] (insect cells); at Cytochrome P450 2E1) was “Not Active” each time. In addition, the Ki entry on Cytochrome P450 2E1 is reported as “Not Active”.
As for `COc1ccc(CN2CCNCC2)c(OC)c1OC` [TRIMETAZIDINE], the IC50 result (against Melanocortin receptor 5 (hek293); in data set [1]; in data set [2]; against Thromboxane-A synthase; in data set [3]; at Caspase-1) was “Not Active” in each case. Besides, in data set [4] (insect cells), the IC50 result is on record as “Not Active”. The Ki result in data set [2] and in data set [3] was “Not Active” in each case.
